In patent US6867192B1, “Compounds useful in the treatment of inflammatory diseases” (priority 1998, dated 2005):
In brackets after ≈: the same amount, converted by molar mass. Like-named read-outs stand apart in the source and are kept apart here.

Legend:
[1] = test system: ovalbumin sensitised guinea pigs; assay: Inhibition of eosinophil infiltration and hyper-reactivity in the guinea pig; type: in vivo; conditions: Cavia porcellus, Eosinophil, inhaled or nasal, 24 h, 0.5 hours before and 6 hours after antigen challenge; for inhibition in vivo at 0.0002 mg/kg: intratracheal dose 0.2 μg/kg body weight; for inhibition in vivo at 0.002 mg/kg: intratracheal dose 2 μg/kg body weight
Method: (3) Inhibition of Eosinophil Infiltration and Hyper-Reactivity in the Guinea Pig
In a method based on that described by Danahay et al., 1997, ovalbumin sensitised guinea pigs were dosed with mepyramine (30 mg kg^−1 ip) to protect against anaphylactic bronchospasm. Test compounds, dissolved in 0.9% saline, were given by the inhaled route (30 minutes breathing of an aerosol of the compound) or the intra-tracheal route, 30 minutes before and 6 hours after ovalbumin challenge (10 minutes breathing of an aerosol generated from a 0.5% solution of ovalbumin). Hyper-reactivity of the airways to the thromboxane mimetic U46619, was measured 24 hours after ovalbumin challenge in un-restrained animals using a whole body plethysmograph (Buxco Ltd., USA). The guinea pigs were then sacrificed and the lungs lavaged. Total and differential leukocyte counts were then obtained for the bronchoalveolar lavage fluid and the percentage reduction in eosinophil accumulation determined (Sanjar et al., 1992). Dexamethasone (200 μg kg^−1 i.t) was used as a positive control. Data was presented as the inhibitory effect of the specified dose expressed as a percentage of the vehicle control response.

[2] = molecular target: T1, integrin VLA-4, expressed on the Jurkat J6 (human lymphoblast cell line) cell membrane with VCAM-1 (Homo sapiens, UniProt P05556+P13612); assay: Jurkat J6/VCAM-1 adhesion assay; type: cell-based; conditions: Jurkat J6 cell adhesion to VCAM-1, 1 mM MnCl2; mean of n experiments
T1 construct: integrin VLA-4, expressed on the Jurkat J6 (human lymphoblast cell line) cell membrane; endogenous in cells; host or cells: Jurkat J6 cells (integrin). zzVCAM-1 was made in house in Drosophila melanogaster S2 cells
T1 sequence (P13612 34-1032): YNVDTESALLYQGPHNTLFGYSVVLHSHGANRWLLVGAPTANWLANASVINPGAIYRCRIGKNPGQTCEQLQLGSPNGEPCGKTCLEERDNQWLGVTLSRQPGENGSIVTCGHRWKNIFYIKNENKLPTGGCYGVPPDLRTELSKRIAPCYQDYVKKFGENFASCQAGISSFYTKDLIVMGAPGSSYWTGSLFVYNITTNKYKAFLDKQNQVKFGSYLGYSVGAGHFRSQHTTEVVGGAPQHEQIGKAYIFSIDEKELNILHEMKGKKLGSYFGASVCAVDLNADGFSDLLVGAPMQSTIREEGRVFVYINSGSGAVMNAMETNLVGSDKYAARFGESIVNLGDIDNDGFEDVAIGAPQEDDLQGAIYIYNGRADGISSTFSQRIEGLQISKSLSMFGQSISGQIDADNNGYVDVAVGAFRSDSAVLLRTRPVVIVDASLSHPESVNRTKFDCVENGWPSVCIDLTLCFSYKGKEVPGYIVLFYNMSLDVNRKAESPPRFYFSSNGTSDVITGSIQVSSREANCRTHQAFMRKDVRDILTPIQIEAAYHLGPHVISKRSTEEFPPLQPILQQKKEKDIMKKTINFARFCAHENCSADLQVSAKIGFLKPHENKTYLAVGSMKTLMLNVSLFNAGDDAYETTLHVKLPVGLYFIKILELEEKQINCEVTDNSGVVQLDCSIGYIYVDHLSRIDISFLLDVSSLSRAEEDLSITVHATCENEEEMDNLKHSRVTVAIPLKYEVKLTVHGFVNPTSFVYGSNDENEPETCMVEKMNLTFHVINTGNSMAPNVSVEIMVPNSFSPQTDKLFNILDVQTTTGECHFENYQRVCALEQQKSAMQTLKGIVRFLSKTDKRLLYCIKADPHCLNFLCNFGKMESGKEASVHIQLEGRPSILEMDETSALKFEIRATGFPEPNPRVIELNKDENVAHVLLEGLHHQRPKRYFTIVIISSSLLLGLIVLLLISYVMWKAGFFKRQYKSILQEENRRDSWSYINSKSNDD
T1 sequence (P05556 21-798): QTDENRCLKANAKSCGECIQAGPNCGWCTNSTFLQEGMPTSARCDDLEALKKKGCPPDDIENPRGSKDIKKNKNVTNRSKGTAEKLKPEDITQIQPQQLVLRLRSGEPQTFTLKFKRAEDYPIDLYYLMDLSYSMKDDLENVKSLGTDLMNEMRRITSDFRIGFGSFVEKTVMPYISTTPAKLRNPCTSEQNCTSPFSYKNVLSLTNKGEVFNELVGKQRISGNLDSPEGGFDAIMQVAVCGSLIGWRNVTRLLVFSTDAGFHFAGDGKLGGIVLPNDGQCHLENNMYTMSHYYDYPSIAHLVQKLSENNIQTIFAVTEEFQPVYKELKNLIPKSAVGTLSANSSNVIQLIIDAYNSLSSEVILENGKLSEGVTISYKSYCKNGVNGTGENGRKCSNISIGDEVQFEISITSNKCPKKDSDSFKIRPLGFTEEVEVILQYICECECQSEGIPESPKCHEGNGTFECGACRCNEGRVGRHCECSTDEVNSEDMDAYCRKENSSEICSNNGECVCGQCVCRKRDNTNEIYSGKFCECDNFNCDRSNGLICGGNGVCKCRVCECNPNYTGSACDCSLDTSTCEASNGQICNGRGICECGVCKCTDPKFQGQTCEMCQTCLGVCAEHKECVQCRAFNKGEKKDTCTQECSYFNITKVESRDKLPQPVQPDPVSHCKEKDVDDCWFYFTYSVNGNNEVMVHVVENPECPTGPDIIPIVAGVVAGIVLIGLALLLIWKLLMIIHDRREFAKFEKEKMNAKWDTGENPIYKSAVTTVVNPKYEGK
In short: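 Jurkat J6 cells loaded with BCECF-AM were added with compound in HBSS with 1 mM MnCl2 to plates coated with IgG-captured zzVCAM-1 (seven-domain, S2-expressed) and left to adhere for 30 min at 37 °C. After washing, fluorescence was read. pIC50 came from a four-parameter fit between no compound and 2 mM EDTA.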

CD4+ T-cells = assay: CD3/VCAM-1 co-stimulation of T-lymphocyte proliferation; type: cell-based; conditions: T-cell; [3H] thymidine incorporation, 4 days incubation, anti-CD3/zzVCAM-1 coated plates
Method: (2) CD3/VCAM-1 Co-stimulation of T-Lymphocyte Proliferation
CD4^+ T-cells were purified from peripheral blood mononuclear cells by negative selection with anti-CD14, CD19, CD16 and HLA.DR antibodies and Dynal beads. Flat bottomed 96-well tissue culture plates were coated with 1 μg ml^−1 anti-CD3 antibody (OKT3), washed and incubated with human IgG and zzVCAM-1 fusion proteins. The CD4^+ T cells (prepared in RPMI-1640 medium supplemented with 10% FCS, penicillin or streptomycin and L-glutamine) were added to the coated plates (1×10^5 cells well^−1) and incubated in the presence or absence of various doses of compound or blocking antibodies for 4 days. Radiolabelled thymidine [^3H] was added for the final 6 hours of incubation and the cells were then harvested using a Skatron plate harvester. Incorporation of the [^3H] label was measured as an indicator of T cell proliferation using a β plate counter. Compounds were assayed in triplicate and data was collected in an analogous procedure to that described for Assay (1).

Solubility in water = type: physicochemical
[3] = airway hyper-reactivity to U46619, read-out: % Inhibition Hyper-reactivity
[4] = read-out: % Inhibition Eosinophil Accumulation

SMILES	inhibition in vivo at 0.0002 mg/kg [1, 3]	inhibition in vivo at 0.0002 mg/kg [1, 4]	inhibition in vivo at 0.002 mg/kg [1, 3]	inhibition in vivo at 0.002 mg/kg [1, 4]	IC50 [2]	IC50 (CD4+ T-cells)	solubility (Solubility in water)
CC(=O)N1CCN(C(=O)Oc2ccc(C[C@H](NC(=O)[C@H](CC(C)C)NC(=O)COc3ccccc3C(C)(C)C)C(=O)O)cc2)CC1 [Example 16, (2S)-3-(4-{[(4-Acetyl-1-piperazinyl)carbonyl]oxy}phenyl)-2-{[(2S)-2-({2-[2-(tert-butyl)phenoxy]acetyl}amino)-4-methylpentanoyl]amino}propanoic acid]	80%	62%	95%	78%	3.24 nM	39.8 nM	–
CC(=O)N1CCN(C(=O)Oc2ccc(C[C@H](NC(=O)[C@H](CC(C)C)NC(=O)COc3ccccc3C)C(=O)O)cc2)CC1 [Example 17, (2S)-3-(4-{[(4-Acetyl-1-piperazinyl)carbonyl]oxy}phenyl)-2-[((2S)-4-methyl-2-{[2-(2-methylphenoxy)acetyl]amino}pentanoyl)amino]propanoic acid]	58%	68%	88%	61%	2.57 nM	31.6 nM	–
CC(C)C[C@H](NC(=O)COc1ccccc1C(C)(C)C)C(=O)N[C@@H](Cc1ccc(OC(=O)N2CCN(C(=O)c3ccccc3)CC2)cc1)C(=O)O [Example 20, (2S)-3-(4-{[(4-Benzoyl-1-piperazinyl)carbonyl]oxy}phenyl)-2-{[(2S)-2-({2-[2-(tert-butyl)phenoxy]acetyl}amino)-4-methylpentanoyl]amino}propanoic acid]	85%	67%	100%	79%	14.8 nM	126 nM	–
Cc1ccccc1OCC(=O)N[C@@H](CC(C)C)C(=O)N[C@@H](Cc1ccc(OC(=O)N2CCN(C(=O)c3ccccc3)CC2)cc1)C(=O)O [Example 21, (2S)-3-(4-{[(4-Benzoyl-1-piperazinyl)carbonyl]oxy}phenyl)-2-[((2S)-4-methyl-2-{[2-(2-methylphenoxy)acetyl]amino}pentanoyl)amino]propanoic acid]	82%	49%	85%	79%	3.89 nM	126 nM	–
CC(C)C[C@H](NC(=O)COc1ccccc1I)C(=O)N[C@@H](Cc1ccc(OC(=O)N2CCOCC2)cc1)C(=O)O [Example 23, (2S)-2-[((2S)-2-{[2-(2-Iodophenoxy)acetyl]amino}-4-methylpentanoyl)amino]-3-{4-[(4-morpholinylcarbonyl)oxy]phenyl}propanoic acid]	–	–	79%	51%	4.47 nM	126 nM	–
CC(C)C[C@H](NC(=O)COc1ccccc1C(C)(C)C)C(=O)N[C@@H](Cc1ccc(OC(=O)N2CCOCC2)cc1)C(=O)O [Example 24, (2S)-2-{[(2S)-2-({2-[2-(Tert-butyl)phenoxy]acetyl}amino)-4-methylpentanoyl]amino}-3-{4-[(4-morpholinylcarbonyl)oxy]phenyl}propanoic acid]	44%	26%	85%	77%	6.03 nM	79.4 nM	–
Cc1ccccc1OCC(=O)N[C@@H](CC(C)C)C(=O)N[C@@H](Cc1ccc(OC(=O)N2CCC(C(N)=O)CC2)cc1)C(=O)O [Example 27, (2S)-3-[4-({[4-(Aminocarbonyl)-1-piperidinyl]carbonyl}oxy)phenyl]-2-[((2S)-4-methyl-2-{[2-(2-methylphenoxy)acetyl]amino}pentanoyl)amino]propanoic acid]	88%	58%	87%	90%	2.82 nM	31.6 nM	10 µg/mL (≈ 16.8 µM)
CC(C)C[C@H](NC(=O)c1cccc2c1oc1ccccc12)C(=O)N[C@@H](Cc1ccc(OC(=O)N2CCC(C(N)=O)CC2)cc1)C(=O)O [Example 28, (2S)-3-[4-({[4-(Aminocarbonyl)-1-piperidinyl]carbonyl}oxy)phenyl]-2-({(2S)-2-[(dibenzo[b,d]furan-4-ylcarbonyl)amino]-4-methylpentanoyl}amino)propanoic acid]	70%	3%	47%	62%	3.47 nM	158 nM	–
